Consider 24 molecules from patent US9212168B2 (priority 2011, dated 2015).

The structures appear in SMILES notation.

In one test the test system is HCV genotype 1a replicon. Put plainly: HCV genotype 1a replicon assay (NS3 protease activity readout). Conditions: HCV genotype 1a replicon. Format: cell-based, hepatitis C virus. The gist of the method: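 EC50 values came from a 4-parameter robust fit of fluorescence (ex 340, em 509 nm) produced by NS3-specific protease in lysates, assayed with 15 μM FRET substrate for 20 min at 37° C, after 48 or 72 hours of compound exposure (0.5% DMSO) of Huh7.5-derived APC89 genotype 1a replicon cells.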
On the technique in general: Replicon systems follow genome replication, usually without infectious particles.
Take `COC(=O)N[C@H](C(=O)N1C[C@@H](C)C[C@H]1c1nc(-c2ccc(-c3cc(F)c(NC(=O)c4ccc(N5CCN(C(=O)C6CC67CC7)C[C@H]5C)nc4)cc3F)cc2)c[nH]1)C(C)C` (stereo partly drawn) [Example 1-90]: the “Genotype 1a” value was “C (C represents pEC50 between and 9 and about 10, (EC50 between 1 nM and 0.1 nM))”.

For `COC(=O)N[C@H](C(=O)N1C[C@@H](OC)C[C@H]1c1nc(-c2ccc(-c3cc(Cl)c(NC(=O)c4ccc(N5C[C@H](C)N(C(=O)NC(C)(C)C)C[C@H]5C)nc4)cc3OC(F)(F)F)cc2)c[nH]1)C1CCOCC1` [Example 28-9], the “Genotype 1a” value is “D (D represents pEC50>10 (EC50<0.1 nM))”. Turning to `COC(=O)N[C@H](C(=O)N1C[C@@H](OC)C[C@H]1c1nc(-c2ccc(-c3cc(F)c(NC(=O)c4ccc(N5CCN(C(=O)[C@H]6CC6(C)C)C[C@H]5C)nc4)cc3OC(F)(F)F)cc2)c[nH]1)C(C)C` [Example 27-4], the “Genotype 1a” value is on record as “D (D represents pEC50>10 (EC50<0.1 nM))”.

For `COC(=O)N[C@H](C(=O)N1C[C@@H](C)C[C@H]1c1nc(-c2ccc(-c3cc(Cl)c(NC(=O)c4ccc(N5C[C@H](C)N(C(=O)[C@H]6CCCN6S(C)(=O)=O)C[C@H]5C)nc4)cc3OC(F)(F)F)cc2)c[nH]1)C(C)C` [Example 1-45], the “Genotype 1a” value is “D (D represents pEC50>10 (EC50<0.1 nM))”.

As for `CCCCOC(=O)N[C@H](C(=O)N1C[C@@H](C)C[C@H]1c1nc(-c2ccc(-c3cc(Cl)c(NC(=O)c4ccc(N5C[C@H](C)N(C(=O)NC)C[C@H]5C)nc4)cc3OC(F)(F)F)cc2)c[nH]1)C(C)C` [Example 7-4], the “Genotype 1a” value is “B (B represents pEC50 between 8 and 9 (EC50 between 1 and 10 nM))”. In the case of `COC(=O)NC(C(=O)N1CC(F)CC1c1nc(-c2ccc(-c3cc(Cl)c(NC(=O)c4ccc(N5CCN(C(=O)C(C)(C)C)CC5C)nc4)cc3OC(F)(F)F)cc2)c[nH]1)C(C)C` (stereo not drawn) [Example 29-2], the “Genotype 1a” value was “C (C represents pEC50 between and 9 and about 10, (EC50 between 1 nM and 0.1 nM))”. On the same count and under the same terms, under `COC(=O)N[C@@H](C(=O)N1C[C@@H](C)C[C@H]1c1nc(-c2ccc(-c3cc(Cl)c(NC(=O)c4ccc(N5CCN(C(=O)C(C)(C)CO)C[C@H]5C)nc4)cc3C(F)(F)F)cc2)c[nH]1)C1CCCCC1` [Example 19-5] stands “A (A represents a pEC50 value between 6 and 8 (EC50 between 1 μM and 10 nM))”; under `COC(=O)N[C@H](C(=O)N1C[C@@H](C)C[C@H]1c1nc(-c2ccc(-c3ccc(C(=O)Nc4ccc(N5C[C@H](C)N(C(=O)C6CC6(Cl)Cl)C[C@H]5C)nc4)cc3OC(F)(F)F)cc2)c[nH]1)C(C)C` (stereo partly drawn) [Example 4-23], “C (C represents pEC50 between and 9 and about 10, (EC50 between 1 nM and 0.1 nM))”.

Take `COC(=O)NC(C(=O)N1CC(C)CC1c1nc(-c2ccc(-c3ccc(NC(=O)c4ccc(N5CCN(C(=O)C(C)(C)CO)CC5C)nc4)cc3OC(F)(F)F)cc2)c[nH]1)C1CCOCC1` (stereo not drawn) [Example 13-32]: the “Genotype 1a” value was “D (D represents pEC50>10 (EC50<0.1 nM))”.

With `CNC(=O)N1C[C@@H](C)N(c2ccc(C(=O)Nc3cc(OC(F)(F)F)c(-c4ccc(-c5c[nH]c([C@@H]6C[C@H](OC)CN6C(=O)[C@@H](NC(=O)OC)C6CCOCC6)n5)cc4)cc3Cl)cn2)C[C@@H]1C` [Example 28-8], the “Genotype 1a” value is given as “D (D represents pEC50>10 (EC50<0.1 nM))”. On the same count and under the same terms, the value for `COC(=O)N[C@H](C(=O)N1C[C@@H](C)C[C@H]1c1nc(-c2ccc(-c3cc(F)c(NC(=O)c4ccc(N5CCN(C(=O)[C@]6(C)CCCN6)C[C@H]5C)nc4)cc3OC(F)(F)F)cc2)c[nH]1)C(C)C` [Example 1-27] was “C (C represents pEC50 between and 9 and about 10, (EC50 between 1 nM and 0.1 nM))”; that for `CC[C@H](C)C(=O)N1CCN(c2ccc(C(=O)Nc3cc(OC(F)(F)F)c(-c4ccc(-c5c[nH]c([C@@H]6C[C@H](C)CN6C(=O)[C@@H](NC(=O)OC)C(C)C)n5)cc4)cc3Cl)cn2)[C@H](C)C1` [Example 1-69] was “D (D represents pEC50>10 (EC50<0.1 nM))”. In the case of `COC(=O)NC(C(=O)N1C(C)CCC1c1nc(-c2ccc(-c3ccc(C(=O)Nc4ccc(N5CCN(C(=O)C6CC6(C)C)CC5C)nc4)cc3OC(F)(F)F)cc2)c(Cl)[nH]1)C(C)C` (stereo not drawn) [Example 18-1], the “Genotype 1a” value was “C (C represents pEC50 between and 9 and about 10, (EC50 between 1 nM and 0.1 nM))”. The same measure, in the same setting: under `COC(=O)N[C@H](C(=O)N1C[C@@H](C)C[C@H]1c1nc(-c2ccc(-c3ccc(C(=O)Nc4ccc(N5C[C@H](C)N(C(=O)C(C)(C)NC(C)=O)C[C@H]5C)nc4)cc3OC(F)(F)F)cc2)c[nH]1)C(C)C` [Example 4-27] stands “C (C represents pEC50 between and 9 and about 10, (EC50 between 1 nM and 0.1 nM))”; under `[2H]C([2H])([2H])C1(C([2H])([2H])[2H])CC1C(=O)N1CCN(c2ccc(C(=O)Nc3cc(Cl)c(-c4ccc(-c5c[nH]c([C@@H]6C[C@H](C)CN6C(=O)[C@@H](NC(=O)OC)C(C)C)n5)cc4)cc3F)cn2)[C@H](C)C1` (stereo partly drawn) [Example 1-100], “D (D represents pEC50>10 (EC50<0.1 nM))”.

The test is the same for the next values; noted with them: Hepatitis C virus, read-out: Genotype 1a, HCV genotype 1a replicon.
Turning to `COC(=O)N[C@H](C(=O)N1[C@@H]2C[C@@H]2C[C@H]1c1nc(-c2ccc(-c3ccc(C(=O)Nc4ccc(N5CCN(C(=O)C(C)(C)C)C[C@H]5C)nc4)cc3OC(F)(F)F)cc2)c(Cl)[nH]1)C(C)C` [Example 9-1], the EC50 was 0.1 to 1 nM. Consider `COC(=O)N[C@H](C(=O)N1C[C@@H](C)C[C@H]1c1nc(-c2ccc(-c3cc(Cl)c(NC(=O)c4ccc(N5CCN(C(=O)NN6CCS(=O)(=O)CC6)C[C@H]5C)nc4)cc3OC(F)(F)F)cc2)c[nH]1)C(C)C` [Example 12-19], for which the EC50 is less than 0.1 nM. For the molecule `CCN(C)C(C)C(=O)N1CCN(c2ccc(C(=O)Nc3cc(OC(F)(F)F)c(-c4ccc(-c5c[nH]c([C@@H]6C[C@H](C)CN6C(=O)[C@@H](NC(=O)OC)C(C)C)n5)cc4)cc3Cl)cn2)[C@H](C)C1` (stereo partly drawn) [Example 12-22], the EC50 was 0.1 to 1 nM. The same measure, in the same setting: under `COC(=O)N[C@H](C(=O)N1C[C@@H](C)C[C@H]1c1nc(-c2ccc(-c3cc(Cl)c(NC(=O)c4ccc(N5CCN(C(=O)C(C)N(C)C)C[C@H]5C)nc4)cc3OC(F)(F)F)cc2)c[nH]1)C(C)C` (stereo partly drawn) [Example 12-23] stands less than 0.1 nM; under `COC(=O)N[C@@H](C(=O)N1C[C@@H](C)C[C@H]1c1nc(-c2ccc(-c3cc(Cl)c(NC(=O)c4ccc(N5CCN(C(=O)C(C)(C)C)C[C@H]5C)nc4)cc3OC(F)(F)F)cc2)c[nH]1)C1C[C@@H](C)O[C@@H](C)C1` (stereo partly drawn) [Example 13-43], 1 to 10 nM. Regarding `COC(=O)N[C@H](C(=O)N1C[C@@H](OC)C[C@H]1c1nc(-c2ccc(-c3cc(F)c(NC(=O)c4ccc(N5CCN(C(=O)C(C)(C)C)[C@@H](CO)C5)nc4)cc3OC(F)(F)F)cc2)c[nH]1)C1CCOCC1` [Example 5-16], the EC50 was less than 0.1 nM. The same measure, in the same setting: the value for `CNC(=O)N1CCN(c2ccc(C(=O)Nc3cc(C(F)(F)F)c(-c4ccc(-c5c[nH]c([C@@H]6CC(C)(C)CN6C(=O)[C@@H](NC(=O)OC)C(C)C)n5)cc4)cc3F)cn2)[C@H](C)C1` [Example 3-4] was 0.1 to 1 nM; that for `CC(C)[C@@H](C(=O)N1C[C@@H](C)C[C@H]1c1nc(-c2ccc(-c3cc(Cl)c(NC(=O)c4ccc(N5CCN(C(=O)C(C)(C)C)C[C@H]5C)nc4)cc3OC(F)(F)F)cc2)c[nH]1)N1CCCCC1` [Example 13-2] was 10 to 1000 nM; that for `COC(=O)N[C@H](C(=O)N1C[C@@H](C)C[C@H]1c1nc(-c2ccc(-c3cc(Cl)c(NC(=O)c4ccc(N5CCN(C(=O)C(C)(C)C)C[C@H]5C)nc4)cc3OC(F)(F)F)cc2)c[nH]1)[C@H](C)OC` [Example 13-8] was less than 0.1 nM.
